This is an account of results in US12252524B2, “GIP/GLP1 co-agonist compounds” (Eli Lilly and Company, priority 2018, dated 2025).

A word on the EC50: it is the concentration needed to bring the measured effect to its halfway point. As a reminder, the Ki is a measure of affinity in units of concentration, obtained from inhibition or displacement.

Numbered stars: 1 amine (or outer) side, 2 acyl side, 3 side chain; on linkers, the order of the positions; unused ones are H or OH. Square brackets hold non-standard residues; d marks the D form. Side chains are listed from the residue outwards. Peptide text beside a SMILES is read from it. * marks the point of attachment. C20 diacid = O=C(O)CCCCCCCCCCCCCCCCCCC(=O)*; αMePhe(2-F) = C[C@](N)(Cc1ccccc1F)C(=O)O; γGlu = O=C(O)[C@H](CCC(=O)[*:2])N[*:1]; αMeY = C[C@](N)(Cc1ccc(O)cc1)C(=O)O; αMeF = C[C@](N)(Cc1ccccc1)C(=O)O; αMeL = CC(C)C[C@](C)(N)C(=O)O; AEEA = NCCOCCOCC(=O)O; Aib = CC(C)(N)C(=O)O

The target of experiment [1] is T1, gastric inhibitory peptide receptor (GIPR) (Homo sapiens, UniProt P48546).
T1 sequence (P48546 22-466): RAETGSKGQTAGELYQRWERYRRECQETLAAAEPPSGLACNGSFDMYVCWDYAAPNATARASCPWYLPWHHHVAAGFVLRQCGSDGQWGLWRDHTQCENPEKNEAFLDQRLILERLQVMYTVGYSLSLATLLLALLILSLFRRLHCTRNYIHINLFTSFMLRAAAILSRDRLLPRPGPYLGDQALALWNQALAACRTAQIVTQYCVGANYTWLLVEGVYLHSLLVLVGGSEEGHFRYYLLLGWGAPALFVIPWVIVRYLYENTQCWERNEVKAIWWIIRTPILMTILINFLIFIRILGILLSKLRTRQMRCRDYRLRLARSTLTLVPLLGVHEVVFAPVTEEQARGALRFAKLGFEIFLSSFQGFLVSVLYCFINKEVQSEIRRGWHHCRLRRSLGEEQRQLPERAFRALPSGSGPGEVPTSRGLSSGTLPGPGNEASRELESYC
Description: cAMP pharmacological functional assay in presence of casein, hGIPR. It counts as cell-based. The settings on record: HEK293 cells expressing hGIPR, 0.1% Casein, geometric mean; read-out: hGIPR cAMP Rel EC50 nM (SEM, n).

The next experiment addresses T2, human Gcg receptor (Homo sapiens, UniProt P47871).
T2 construct: expressed in transfected cells; crude membranes
Nature of the experiment: [125I]-Glucagon binding (SPA), human Gcg receptor. The settings on record: read-out: hGLcgR Ki, nM (SEM, n). In short, it runs like this:
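Scintillation counts are taken after membranes and WGA beads incubate and settle for 12 hours at room temperature. Buffer is 25 mM HEPES, pH 7.4, with CaCl2, MgCl2, bacitracin and Tween-20. Ki values, from four-parameter IC50 fits, are geometric means over independent days.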

A further experiment addresses T3, human GIP receptor (Homo sapiens, UniProt P48546).
T3 construct: expressed in transfected cells; crude membranes
T3 sequence (P48546 22-466): T1 sequence (P48546 22-466)
Description: [125I]-GIP binding (SPA), human GIP receptor. The settings on record: read-out: hGIPR Ki, nM (SEM, n).

Another experiment addresses human GLP-1R (Homo sapiens, UniProt P43220). Description: [125I]-GLP-1 binding (SPA), human GLP-1 receptor. On the set-up: expressed in transfected cells; crude membranes. The settings on record: read-out: hGLP1R Ki, (nM) (SEM, n). Summed up:
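Membranes: hypotonic lysis (50 mM Tris HCl, pH 7.5, protease inhibitors), Potter-Elvehjem homogenization, high-speed pellet (35000×g 1 h or 25000×g 30 min, 4° C.). Buffer: 25 mM HEPES pH 7.4, 2.5 mM CaCl2, 1 mM MgCl2. Four-parameter IC50 fit; Ki as geometric mean ± SEM.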

Experiment [2] addresses human GLP-1 receptor (GLP-1R) (Homo sapiens, UniProt P43220). Description: cAMP pharmacological functional assay in presence of casein, hGLP-1R. It counts as cell-based. The conditions noted are these: HEK293 cells expressing hGLP-1R, 0.1% Casein, geometric mean; read-out: hGLP1R cAMP Rel EC50 nM (SEM, n).

T2 sequence (P47871 26-477): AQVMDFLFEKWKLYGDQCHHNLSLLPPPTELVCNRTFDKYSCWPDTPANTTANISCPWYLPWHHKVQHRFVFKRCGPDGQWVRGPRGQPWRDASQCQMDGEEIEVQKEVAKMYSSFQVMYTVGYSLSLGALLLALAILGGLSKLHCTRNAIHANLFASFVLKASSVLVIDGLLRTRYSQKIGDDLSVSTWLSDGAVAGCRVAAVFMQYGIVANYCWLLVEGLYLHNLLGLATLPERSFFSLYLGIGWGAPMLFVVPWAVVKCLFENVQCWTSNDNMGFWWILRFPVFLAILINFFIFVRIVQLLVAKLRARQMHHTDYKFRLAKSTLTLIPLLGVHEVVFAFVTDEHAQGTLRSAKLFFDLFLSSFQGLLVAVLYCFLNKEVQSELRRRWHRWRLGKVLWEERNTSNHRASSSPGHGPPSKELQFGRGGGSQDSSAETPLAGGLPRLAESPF
Chain of human GLP-1R (P43220 24-463): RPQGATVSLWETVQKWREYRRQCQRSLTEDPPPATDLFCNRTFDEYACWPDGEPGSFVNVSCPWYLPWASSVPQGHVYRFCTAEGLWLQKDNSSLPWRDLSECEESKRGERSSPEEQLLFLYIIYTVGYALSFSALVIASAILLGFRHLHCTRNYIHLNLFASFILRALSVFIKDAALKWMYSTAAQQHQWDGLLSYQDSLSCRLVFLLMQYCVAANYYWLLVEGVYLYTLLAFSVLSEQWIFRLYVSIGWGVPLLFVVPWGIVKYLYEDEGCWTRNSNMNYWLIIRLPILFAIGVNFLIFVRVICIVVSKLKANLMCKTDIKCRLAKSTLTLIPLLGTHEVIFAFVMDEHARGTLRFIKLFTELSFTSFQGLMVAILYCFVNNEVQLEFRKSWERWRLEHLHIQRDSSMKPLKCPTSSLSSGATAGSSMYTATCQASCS
Chain of human GLP-1 receptor (GLP-1R) (P43220 24-463): as above

Regarding `CC[C@H](C)[C@H](NC(=O)[C@H](CC(C)C)NC(=O)[C@](C)(Cc1ccc(O)cc1)NC(=O)[C@@H](CCC(=O)O)NC(=O)[C@@H](NC(=O)[C@H](Cc1ccccc1)NC(=O)[C@H](CCC(=O)O)NC(=O)C(C)(C)NC(=O)[C@H](CCC(N)=O)NC(=O)[C@H](C)NC(=O)[C@H](CCCCNC(=O)COCCOCCNC(=O)COCCOCCNC(=O)CC[C@H](NC(=O)CCCCCCCCCCCCCCCCCCC(=O)O)C(=O)O)NC(=O)[C@H](CCC(=O)O)NC(=O)[C@H](CC(=O)O)NC(=O)[C@H](CC(C)C)NC(=O)[C@](C)(CC(C)C)NC(=O)[C@@H](NC(=O)[C@H](CO)NC(=O)[C@H](Cc1ccc(O)cc1)NC(=O)[C@H](CC(=O)O)NC(=O)[C@H](CO)NC(=O)[C@@H](NC(=O)[C@](C)(Cc1ccccc1F)NC(=O)[C@@H](NC(=O)CNC(=O)[C@H](CCC(=O)O)NC(=O)C(C)(C)NC(=O)[C@@H](N)Cc1ccc(O)cc1)[C@@H](C)O)[C@@H](C)O)[C@@H](C)CC)[C@@H](C)CC)C(=O)N[C@@H](CCC(=O)O)C(=O)NCC(=O)NCC(=O)N1CCC[C@H]1C(=O)N[C@@H](CO)C(=O)N[C@@H](CO)C(=O)NCC(=O)N[C@@H](C)C(=O)N1CCC[C@H]1C(=O)N1CCC[C@H]1C(=O)N1CCC[C@H]1C(=O)N[C@@H](CO)C(N)=O` [Example 222] (H-Y[Aib]EGT[αMePhe(2-F)]TSDYSI[αMeL]LDEK([AEEA-AEEA-γGlu-C20 diacid])AQ[Aib]EFI[dE][αMeY]LIEGGPSSGAPPPS-NH2; N-terminus assumed), the values for the EC50 in experiment [1] and in experiment [2] were 0.0306 nM and 0.0248 nM, respectively. Further, the Ki on human Gcg receptor was determined as 71.3 nM; at human GIP receptor, 0.0495 nM; at human GLP-1R it was 3.59 nM.
Taken in the same sequence, the figures for `CC[C@H](C)[C@H](NC(=O)[C@H](CC(C)C)NC(=O)[C@](C)(Cc1ccc(O)cc1)NC(=O)[C@H](CCC(=O)O)NC(=O)[C@@H](NC(=O)[C@H](Cc1ccccc1)NC(=O)[C@H](CCC(=O)O)NC(=O)C(C)(C)NC(=O)[C@H](CCC(N)=O)NC(=O)[C@H](C)NC(=O)[C@H](CCCCNC(=O)COCCOCCNC(=O)COCCOCCNC(=O)CC[C@H](NC(=O)CCCCCCCCCCCCCCCCCCC(=O)O)C(=O)O)NC(=O)[C@H](CCC(=O)O)NC(=O)[C@H](CC(=O)O)NC(=O)[C@H](CC(C)C)NC(=O)[C@](C)(CC(C)C)NC(=O)[C@@H](NC(=O)[C@H](CO)NC(=O)[C@H](Cc1ccc(O)cc1)NC(=O)[C@H](CC(=O)O)NC(=O)[C@H](CO)NC(=O)[C@@H](NC(=O)[C@](C)(Cc1ccccc1F)NC(=O)[C@@H](NC(=O)CNC(=O)[C@H](CCC(=O)O)NC(=O)C(C)(C)NC(=O)[C@@H](N)Cc1ccc(O)cc1)[C@@H](C)O)[C@@H](C)O)[C@@H](C)CC)[C@@H](C)CC)C(=O)N[C@@H](CCC(=O)O)C(=O)NCC(=O)NCC(=O)N1CCC[C@H]1C(=O)N[C@@H](CO)C(=O)N[C@@H](CO)C(=O)NCC(=O)N[C@@H](C)C(=O)N1CCC[C@H]1C(=O)N1CCC[C@H]1C(=O)N1CCC[C@H]1C(=O)N[C@@H](CO)C(N)=O` [Example 223] (H-Y[Aib]EGT[αMePhe(2-F)]TSDYSI[αMeL]LDEK([AEEA-AEEA-γGlu-C20 diacid])AQ[Aib]EFIE[αMeY]LIEGGPSSGAPPPS-NH2) were 0.067 nM, 0.0363 nM, 46.5 nM, 0.0921 nM and 5.62 nM.
Consider `CC[C@H](C)[C@H](NC(=O)[C@H](CC(C)C)NC(=O)[C@H](Cc1ccc(O)cc1)NC(=O)[C@@H](CCC(=O)O)NC(=O)[C@@H](NC(=O)[C@H](Cc1ccccc1)NC(=O)[C@H](CCC(=O)O)NC(=O)C(C)(C)NC(=O)[C@H](CCC(N)=O)NC(=O)[C@H](C)NC(=O)[C@H](CCCCNC(=O)COCCOCCNC(=O)COCCOCCNC(=O)CC[C@H](NC(=O)CCCCCCCCCCCCCCCCCCC(=O)O)C(=O)O)NC(=O)[C@H](CCC(=O)O)NC(=O)[C@H](CC(=O)O)NC(=O)[C@H](CC(C)C)NC(=O)C(C)(C)NC(=O)[C@@H](NC(=O)[C@H](CO)NC(=O)[C@H](Cc1ccc(O)cc1)NC(=O)[C@H](CC(=O)O)NC(=O)[C@H](CO)NC(=O)[C@@H](NC(=O)[C@](C)(Cc1ccccc1F)NC(=O)[C@@H](NC(=O)CNC(=O)[C@H](CCC(=O)O)NC(=O)C(C)(C)NC(=O)[C@@H](N)Cc1ccc(O)cc1)[C@@H](C)O)[C@@H](C)O)[C@@H](C)CC)[C@@H](C)CC)C(=O)N[C@@H](CCC(=O)O)C(=O)NCC(=O)NCC(=O)N1CCC[C@H]1C(=O)N[C@@H](CO)C(=O)N[C@@H](CO)C(=O)NCC(=O)N[C@@H](C)C(=O)N1CCC[C@H]1C(=O)N1CCC[C@H]1C(=O)N1CCC[C@H]1C(=O)N[C@@H](CO)C(N)=O` [Example 224] (H-Y[Aib]EGT[αMePhe(2-F)]TSDYSI[Aib]LDEK([AEEA-AEEA-γGlu-C20 diacid])AQ[Aib]EFI[dE]YLIEGGPSSGAPPPS-NH2), for which the EC50 in experiment [1] came out at 0.0545 nM; in experiment [2], 0.0349 nM. Also, the Ki at human Gcg receptor amounted to 627 nM; at human GIP receptor, 0.0482 nM; at human GLP-1R, 6.86 nM.
Taken in the same sequence, the figures for `CC[C@H](C)[C@H](NC(=O)[C@H](CC(C)C)NC(=O)[C@H](Cc1ccc(O)cc1)NC(=O)[C@@H](CCC(=O)O)NC(=O)[C@@H](NC(=O)[C@H](Cc1ccccc1)NC(=O)[C@H](CCC(=O)O)NC(=O)C(C)(C)NC(=O)[C@H](CCC(N)=O)NC(=O)[C@H](C)NC(=O)[C@H](CCCCNC(=O)COCCOCCNC(=O)COCCOCCNC(=O)CC[C@H](NC(=O)CCCCCCCCCCCCCCCCCCC(=O)O)C(=O)O)NC(=O)[C@H](CCC(=O)O)NC(=O)[C@H](CC(=O)O)NC(=O)[C@H](CC(C)C)NC(=O)C(C)(C)NC(=O)[C@@H](NC(=O)[C@H](CO)NC(=O)[C@H](Cc1ccc(O)cc1)NC(=O)[C@H](CC(=O)O)NC(=O)[C@H](CO)NC(=O)[C@@H](NC(=O)[C@](C)(Cc1ccccc1)NC(=O)[C@@H](NC(=O)CNC(=O)[C@H](CCC(=O)O)NC(=O)C(C)(C)NC(=O)[C@@H](N)Cc1ccc(O)cc1)[C@@H](C)O)[C@@H](C)O)[C@@H](C)CC)[C@@H](C)CC)C(=O)N[C@@H](CCC(=O)O)C(=O)NCC(=O)NCC(=O)N1CCC[C@H]1C(=O)N[C@@H](CO)C(=O)N[C@@H](CO)C(=O)NCC(=O)N[C@@H](C)C(=O)N1CCC[C@H]1C(=O)N1CCC[C@H]1C(=O)N1CCC[C@H]1C(=O)N[C@@H](CO)C(N)=O` [Example 225] (H-Y[Aib]EGT[αMeF]TSDYSI[Aib]LDEK([AEEA-AEEA-γGlu-C20 diacid])AQ[Aib]EFI[dE]YLIEGGPSSGAPPPS-NH2) were 0.101 nM, 0.067 nM, 714 nM, 0.0622 nM and 8.79 nM.
For `CC[C@H](C)[C@H](NC(=O)[C@H](CC(C)C)NC(=O)[C@H](Cc1ccc(O)cc1)NC(=O)[C@@H](CCC(=O)O)NC(=O)[C@@H](NC(=O)[C@H](Cc1ccccc1)NC(=O)[C@H](CCC(=O)O)NC(=O)C(C)(C)NC(=O)[C@H](CCC(N)=O)NC(=O)[C@H](C)NC(=O)[C@H](CCCCNC(=O)COCCOCCNC(=O)COCCOCCNC(=O)CC[C@H](NC(=O)CCCCCCCCCCCCCCCCCCC(=O)O)C(=O)O)NC(=O)[C@H](CCC(=O)O)NC(=O)[C@H](CC(=O)O)NC(=O)[C@H](CC(C)C)NC(=O)[C@H](CC(C)C)NC(=O)[C@@H](NC(=O)[C@H](CO)NC(=O)[C@H](Cc1ccc(O)cc1)NC(=O)[C@H](CC(=O)O)NC(=O)[C@H](CO)NC(=O)[C@@H](NC(=O)[C@](C)(Cc1ccccc1F)NC(=O)[C@@H](NC(=O)CNC(=O)[C@H](CCC(=O)O)NC(=O)C(C)(C)NC(=O)[C@@H](N)Cc1ccc(O)cc1)[C@@H](C)O)[C@@H](C)O)[C@@H](C)CC)[C@@H](C)CC)C(=O)N[C@@H](CCC(=O)O)C(=O)NCC(=O)NCC(=O)N1CCC[C@H]1C(=O)N[C@@H](CO)C(=O)N[C@@H](CO)C(=O)NCC(=O)N[C@@H](C)C(=O)N1CCC[C@H]1C(=O)N1CCC[C@H]1C(=O)N1CCC[C@H]1C(=O)N[C@@H](CO)C(N)=O` [Example 226] (H-Y[Aib]EGT[αMePhe(2-F)]TSDYSILLDEK([AEEA-AEEA-γGlu-C20 diacid])AQ[Aib]EFI[dE]YLIEGGPSSGAPPPS-NH2), the 50% effective concentration (EC50) was determined as 0.0461 nM in experiment [1] and 0.0284 nM in experiment [2]. Also, the results for the Ki at human Gcg receptor, on human GIP receptor and on human GLP-1R were 200 nM, 0.0254 nM and 4.1 nM, respectively.
